The text below walks through data of PubChem BioAssay AID330 (DTP/NCI, 2004).

“And” between values parts separate entries of the source, which are not always exact repeats. Identical values can stand only once. Toxic doses and inconclusive results are not listed.

The assay concerns P388 leukemia ip, CD2F1 mice, survival T/C. Briefly: NCI In Vivo Anticancer Drug Screen. Data for tumor model P388 Leukemia (intraperitoneal) in CD2F1 (CDF1) mice. The conditions noted are these: endpoint: median survival time, higher = longer survival. The method in brief:
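Mice carrying the transplanted tumor received test compound or vehicle. Survival was recorded in each group, and the value is the treated-group measurement divided by that of the vehicle-treated control group.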

The mark [1] stands for this setting: dose: 100.0 mg/kg/injection, schedule: Q01DX009 (ip), vehicle: saline.
The mark [2] stands for this setting: dose: 200.0 mg/kg/injection, schedule: Q01DX009 (ip), vehicle: saline.
Setting [3] is: dose: 100.0 mg/kg/injection, schedule: Q04DX003 (ip), vehicle: Klucel (hydroxypropylcellulose) (HPC).
The mark [4] stands for this setting: dose: 200.0 mg/kg/injection, schedule: Q04DX003 (ip), vehicle: Klucel (hydroxypropylcellulose) (HPC).
Setting [5] is: dose: 60.0 mg/kg/injection, schedule: Q01DX005 (ip), vehicle: saline with Tween-80.
Setting [6] is: dose: 120.0 mg/kg/injection, schedule: Q01DX005 (ip), vehicle: saline with Tween-80.
Setting [7] is: dose: 240.0 mg/kg/injection, schedule: Q01DX005 (ip), vehicle: saline with Tween-80.
Where [8] appears, read: dose: 25.0 mg/kg/injection, schedule: Q01DX009 (ip), vehicle: saline with Tween-80.
[9] abbreviates: dose: 50.0 mg/kg/injection, schedule: Q01DX009 (ip), vehicle: saline with Tween-80.
[10] abbreviates: dose: 100.0 mg/kg/injection, schedule: Q01DX009 (ip), vehicle: saline with Tween-80.
[11] abbreviates: dose: 200.0 mg/kg/injection, schedule: Q01DX009 (ip), vehicle: saline with Tween-80.

Regarding `C/C(=C\c1cc2c(cc1Cl)OCO2)[N+](=O)[O-]`, the T/C is 104 % of control (dose: 100.0 mg/kg/injection, schedule: Q04DX002 (ip), vehicle: Klucel (hydroxypropylcellulose) (HPC)); 102 % of control (dose: 200.0 mg/kg/injection, schedule: Q04DX002 (ip), vehicle: Klucel (hydroxypropylcellulose) (HPC)); 118 % of control (dose: 400.0 mg/kg/injection, schedule: Q04DX002 (ip), vehicle: Klucel (hydroxypropylcellulose) (HPC)).

As for `O=C1N(CC2CO2)CCN1CC1CO1` (stereo not drawn), the T/C was 120 % of control (dose: 25.0 mg/kg/injection, schedule: Q01DX009 (ip), vehicle: saline); 155 % of control and 159 % of control under setting [1]; 206 % of control and 215 % of control under setting [2].

As to `C[Si](C)(C)N=S1(=N[Si](C)(C)C)CCCC1`, the T/C reads like this: (dose: 50.0 mg/kg/injection, schedule: Q01DX005 (ip), vehicle: olive oil, sesame oil, peanut oil) 109 % of control; (dose: 100.0 mg/kg/injection, schedule: Q01DX005 (ip), vehicle: olive oil, sesame oil, peanut oil) 109 % of control; (dose: 200.0 mg/kg/injection, schedule: Q01DX005 (ip), vehicle: olive oil, sesame oil, peanut oil) 114 % of control.

As for `Cc1csc2ncnc(N)c12`, the T/C runs as follows: (dose: 50.0 mg/kg/injection, schedule: Q04DX003 (ip), vehicle: Klucel (hydroxypropylcellulose) (HPC)) 106 % of control; under setting [3], 115 % of control; under setting [4], 108 % of control.

As for `CN1C(=O)c2ccccc2N(C)C12CCN(Cc1ccccc1)CC2`, the T/C reads like this: (dose: 50.0 mg/kg/injection, schedule: Q01DX005 (ip), vehicle: distilled water + alcohol) 103 % of control; (dose: 100.0 mg/kg/injection, schedule: Q01DX005 (ip), vehicle: distilled water + alcohol) 100 % of control; (dose: 200.0 mg/kg/injection, schedule: Q01DX005 (ip), vehicle: distilled water + alcohol) 97 % of control.

On to `COc1cccc2c1C(=O)c1c(O)c3c(c(O)c1C2=O)C[C@@](O)(C(C)=O)CC3OC1CC(N/C(C)=C/C(=O)c2ccccc2)C(O)C(C)O1` (stereo partly drawn), for which the T/C by setting is: (dose: 6.25 mg/kg/injection, schedule: Q04DX003 (ip), vehicle: saline with Tween-80) 105 % of control; (dose: 12.5 mg/kg/injection, schedule: Q04DX003 (ip), vehicle: saline with Tween-80) 104 % of control; (dose: 25.0 mg/kg/injection, schedule: Q04DX003 (ip), vehicle: saline with Tween-80) 105 % of control and 107 % of control; (dose: 50.0 mg/kg/injection, schedule: Q04DX003 (ip), vehicle: saline with Tween-80) 101 % of control and 111 % of control.

In the case of `CCO/C=C1/N=C(c2ccccc2Cl)OC1=O`, the T/C by setting is: under setting [5], 106 % of control; under setting [6], 118 % of control; under setting [7], 98 % of control.

For `CC(C)=NNC1=NC(C)(C)P(=O)(NNc2ncccn2)S1` (stereo not drawn), the T/C was 107 % of control (dose: 15.0 mg/kg/injection, schedule: Q01DX005 (ip), vehicle: Klucel (hydroxypropylcellulose) (HPC)); 105 % of control (dose: 30.0 mg/kg/injection, schedule: Q01DX005 (ip), vehicle: Klucel (hydroxypropylcellulose) (HPC)); 93 % of control (dose: 60.0 mg/kg/injection, schedule: Q01DX005 (ip), vehicle: Klucel (hydroxypropylcellulose) (HPC)); 98 % of control (dose: 60.0 mg/kg/injection, schedule: Q01DX005 (ip), vehicle: saline).

For `CC1(C)C=C(NC(=O)N2CC2)C(C)(C)N1O`, the T/C reads like this: (dose: 6.25 mg/kg/injection, schedule: Q01DX009 (ip), vehicle: saline with Tween-80) 100 % of control; (dose: 12.5 mg/kg/injection, schedule: Q01DX009 (ip), vehicle: saline with Tween-80) 103 % of control; under setting [8], 103 % of control; under setting [9], 117 % of control.

As for `NCCCCC(C(=O)O)N(C(=O)OCc1ccccc1)C(=O)OCc1ccccc1` (stereo not drawn), the T/C runs as follows: (dose: 50.0 mg/kg/injection, schedule: Q01DX005 (ip), vehicle: saline with Tween-80) 106 % of control; (dose: 100.0 mg/kg/injection, schedule: Q01DX005 (ip), vehicle: saline with Tween-80) 101 % of control; (dose: 200.0 mg/kg/injection, schedule: Q01DX005 (ip), vehicle: saline with Tween-80) 97 % of control.

As to `O=C1COc2ccccc2OCCOCCOc2ccccc2OC1`, the T/C is, setting by setting: under setting [5], 97 % of control; under setting [6], 98 % of control; under setting [7], 96 % of control.

On to `COC(=O)c1cc(=O)nc(N/N=C/c2ccccc2O)s1`, for which the T/C (dose: 50.0 mg/kg/injection, schedule: Q01DX005 (ip), vehicle: Klucel (hydroxypropylcellulose) (HPC)) was 98 % of control; the T/C (dose: 100.0 mg/kg/injection, schedule: Q01DX005 (ip), vehicle: Klucel (hydroxypropylcellulose) (HPC)) was 100 % of control; the T/C (dose: 200.0 mg/kg/injection, schedule: Q01DX005 (ip), vehicle: Klucel (hydroxypropylcellulose) (HPC)) was 108 % of control.

Turning to `O=c1c(N=Nc2ccccc2)c(C(O)C(O)CO)[nH]n1-c1ccc(Cl)cc1` (stereo not drawn), the T/C was 87 % of control (dose: 63.5 mg/kg/injection, schedule: Q01DX001 (ip), vehicle: Klucel (hydroxypropylcellulose) (HPC)); 89 % of control (dose: 127.0 mg/kg/injection, schedule: Q01DX001 (ip), vehicle: Klucel (hydroxypropylcellulose) (HPC)); 100 % of control (dose: 254.0 mg/kg/injection, schedule: Q01DX001 (ip), vehicle: Klucel (hydroxypropylcellulose) (HPC)).

In the case of `NCCn1[nH]c(=O)c2ccncc2c1=O`, the T/C by setting is: (dose: 100.0 mg/kg/injection, schedule: Q04DX002 (ip), vehicle: saline with Tween-80) 94 % of control; (dose: 200.0 mg/kg/injection, schedule: Q04DX002 (ip), vehicle: saline with Tween-80) 92 % of control; (dose: 400.0 mg/kg/injection, schedule: Q04DX002 (ip), vehicle: saline with Tween-80) 92 % of control.

Take `Cn1cc(/C=C/[N+](=O)[O-])c2ccccc21`: the T/C is, setting by setting: under setting [3], 105 % of control; under setting [4], 99 % of control; (dose: 400.0 mg/kg/injection, schedule: Q04DX003 (ip), vehicle: Klucel (hydroxypropylcellulose) (HPC)) 100 % of control.

Turning to `CCOC(=O)C(Cc1ccccc1C(=O)NC)c1ccccc1` (stereo not drawn), the T/C (dose: 100.0 mg/kg/injection, schedule: Q01DX009 (ip), vehicle: saline sonified) is 95 % of control; the T/C (dose: 200.0 mg/kg/injection, schedule: Q01DX009 (ip), vehicle: saline sonified) was 95 % of control; the T/C (dose: 400.0 mg/kg/injection, schedule: Q01DX009 (ip), vehicle: saline sonified) was 95 % of control.

In the case of `COc1ccc(CCN)cc1OC`, the T/C is 100 % of control under setting [9]; 100 % of control under setting [10]; 108 % of control under setting [1]; 100 % of control under setting [11]; 106 % of control under setting [2].

Turning to `CP(=Nc1ccccc1)(c1ccccc1)c1ccccc1`, the T/C is, setting by setting: (dose: 100.0 mg/kg/injection, schedule: Q01DX001 (ip), vehicle: saline with Tween-80) 95 % of control; (dose: 200.0 mg/kg/injection, schedule: Q01DX001 (ip), vehicle: saline with Tween-80) 99 % of control; (dose: 400.0 mg/kg/injection, schedule: Q01DX001 (ip), vehicle: saline with Tween-80) 102 % of control.

For `COc1ccc(C(=O)c2ccccc2)cc1OC`, the T/C was 100 % of control under setting [8], 100 % of control under setting [9], 98 % of control under setting [10] and 98 % of control under setting [11].

As for `COc1cc2c(cc1OC)C(=O)c1ncccc1C2=O`, the T/C is, setting by setting: (dose: 12.5 mg/kg/injection, schedule: Q01DX009 (ip), vehicle: other) 104 % of control; (dose: 25.0 mg/kg/injection, schedule: Q01DX009 (ip), vehicle: other) 100 % of control; (dose: 50.0 mg/kg/injection, schedule: Q01DX009 (ip), vehicle: other) 99 % of control; (dose: 100.0 mg/kg/injection, schedule: Q01DX009 (ip), vehicle: other) 90 % of control; (dose: 200.0 mg/kg/injection, schedule: Q01DX009 (ip), vehicle: other) 89 % of control.
